Like-named read-outs stand apart in the source and are kept apart here.
Molecular target: T1, Zcchc11 enzyme (Homo sapiens, UniProt Q5TAX3)
T1 construct: made in house; host or cells: HEK293 cells (Zcchc11); E. coli Rosetta II (LIN28A)
T1 sequence (Q5TAX3 212-1420): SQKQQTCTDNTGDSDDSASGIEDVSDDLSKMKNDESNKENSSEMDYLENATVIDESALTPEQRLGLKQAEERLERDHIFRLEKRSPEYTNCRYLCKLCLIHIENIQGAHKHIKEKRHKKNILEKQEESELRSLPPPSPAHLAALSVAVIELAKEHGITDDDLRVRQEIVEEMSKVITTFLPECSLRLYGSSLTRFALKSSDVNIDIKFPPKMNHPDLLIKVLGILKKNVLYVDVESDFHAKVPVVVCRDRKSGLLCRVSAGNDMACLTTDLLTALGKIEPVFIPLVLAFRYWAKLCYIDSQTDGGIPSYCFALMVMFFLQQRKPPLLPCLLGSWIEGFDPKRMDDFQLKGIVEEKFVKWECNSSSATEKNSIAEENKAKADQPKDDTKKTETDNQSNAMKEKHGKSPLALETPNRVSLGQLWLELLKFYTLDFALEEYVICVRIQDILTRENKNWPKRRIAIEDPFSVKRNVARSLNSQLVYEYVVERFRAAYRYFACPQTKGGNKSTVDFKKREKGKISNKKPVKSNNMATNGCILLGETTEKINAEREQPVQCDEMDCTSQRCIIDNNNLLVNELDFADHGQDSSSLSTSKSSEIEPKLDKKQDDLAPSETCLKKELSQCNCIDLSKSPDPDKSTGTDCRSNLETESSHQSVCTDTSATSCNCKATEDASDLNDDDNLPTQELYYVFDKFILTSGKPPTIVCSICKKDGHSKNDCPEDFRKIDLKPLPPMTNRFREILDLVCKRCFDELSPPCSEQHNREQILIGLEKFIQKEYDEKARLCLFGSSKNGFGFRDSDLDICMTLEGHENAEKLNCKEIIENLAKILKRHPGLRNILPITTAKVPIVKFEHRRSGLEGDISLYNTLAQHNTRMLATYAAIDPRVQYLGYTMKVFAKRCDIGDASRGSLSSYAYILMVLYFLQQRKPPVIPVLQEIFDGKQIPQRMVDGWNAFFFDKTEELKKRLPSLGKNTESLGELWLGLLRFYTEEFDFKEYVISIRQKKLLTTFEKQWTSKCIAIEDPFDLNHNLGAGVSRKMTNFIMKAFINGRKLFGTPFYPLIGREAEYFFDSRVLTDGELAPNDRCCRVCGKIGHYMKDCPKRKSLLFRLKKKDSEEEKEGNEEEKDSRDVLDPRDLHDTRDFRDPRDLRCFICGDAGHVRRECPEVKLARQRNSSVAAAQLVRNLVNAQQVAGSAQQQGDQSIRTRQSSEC
Assay: TUTase assay (Zcchc11 assay, Lin28a-dependent polyuridylation of pre-let-7)
Type: biochemical
Settings: read-out: Potency Lin28a-dep Z11 IC50
Procedure, shortened: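 Potency is measured as inhibition of LIN28A-driven U-tail addition to 2 nM pre-let-7 by 0.2 nM HEK293-derived Zcchc11 fragment with 5 uM UTP at room temperature. Tail growth appears as fluorescein quenching by an annealing rhodamine-A20 probe.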

[1] = Lin28a-dependent Zcchc11 (Z11) TUTase assay
[2] = LIN28A 10 nM, Zcchc11 0.2 nM, 5′-fluorescein pre-let-7 miRNA 2 nM, UTP 5 uM, room temperature, 30 minutes pre-incubation
[3] = Lin28a-dependent Zcchc11 (Z11) TUTase activity

| SMILES | IC50 [1] [nM] | IC50 [3] [nM] | other results |
| --- | --- | --- | --- |
| O=C(O)c1cn(-c2cccnc2)c2cc(N3CCC[C@@H]3COc3ncccc3Cl)c(Cl)cc2c1=O [Example 489, (R)-6-chloro-7-(2-(((3-chloropyridin-2-yl)oxy)methyl)pyrrolidin-1-yl)-4-oxo-1-(pyridin-3-yl)-1,4-dihydroquinoline-3-carboxylic acid] | ≤ 1000 |  |  |
| C[C@H]1CCN(c2cc3c(cc2Cl)c(=O)c(C(=O)O)cn3-c2ccc(N3CC(N(C)C)C3)nc2)[C@H]1COc1ncccc1Cl (racemic) [Example 44, rac-6-chloro-7-((2R,3S)-2-(((3-chloropyridin-2-yl)oxy)methyl)-3-methylpyrrolidin-1-yl)-1-(6-(3-(dimethylamino)azetidin-1-yl)pyridin-3-yl)-4-oxo-1,4-dihydroquinoline-3-carboxylic acid] |  |  | IC50 [2]: ≤ 1000 nM |
| O=C(O)c1cn(-c2ccc(O)c(Cl)c2)c2cc(N3CCC[C@@H]3COc3ccccn3)c(F)cc2c1=O [Example 408, (R)-1-(3-chloro-4-hydroxyphenyl)-6-fluoro-4-oxo-7-(2-((pyridin-2-yloxy)methyl)pyrrolidin-1-yl)-1,4-dihydroquinoline-3-carboxylic acid] | ≤ 1000 |  |  |
| O=C(O)c1cn(-c2ccc(O)cc2)c2cc(N3CCC[C@@H]3COc3ccccn3)c(F)cc2c1=O [Compound 166, (R)-6-fluoro-1-(4-hydroxy-phenyl)-4-oxo-7-(2-((pyridin-2-yloxy)methyl)pyrrolidin-1-yl)-1,4-dihydro-quinoline-3-carboxylic acid] |  | ≤ 1000 |  |
| O=C(O)c1cn(-c2cnccn2)c2cc(N3CCC[C@@H]3COc3ncccc3F)c(Cl)cc2c1=O [Compound 213, 6-Chloro-7-[(2R)-2-{[(3-fluoropyridin-2-yl)oxy]methyl}pyrrolidin-1-yl]-4-oxo-1-(pyrazin-2-yl)quinoline-3-carboxylic acid] |  | ≤ 1000 |  |
| COc1ccc(Cl)c(-n2cc(C(=O)O)c(=O)c3cc(F)c(N4CCC[C@@H]4COc4ccccn4)cc32)c1 [Example 398, (R)-1-(2-chloro-5-methoxyphenyl)-6-fluoro-4-oxo-7-(2-((pyridin-2-yloxy)methyl)pyrrolidin-1-yl)-1,4-dihydroquinoline-3-carboxylic acid] | 1000 to 10000 |  |  |
| COc1ccnc(OC[C@H]2C[C@H]3C[C@H]3N2c2cc3c(cc2Cl)c(=O)c(C(=O)O)cn3-c2ccc(N(C)C)nc2)c1F [Compound 196, 6-chloro-1-(6-(dimethyl-amino)pyridin-3-yl)-7-((1R,3R,5R)-3-(((3-fluoro-4-methoxy-pyridin-2-yl)oxy)methyl)-2-azabicyclo [3.1.0]hexan-2-yl)-4-oxo-1,4-dihydro-quinoline-3-carboxylic acid] |  | ≤ 1000 |  |
| O=C(O)c1cn(C2CC(CO)C2)c2cc(N3CCC[C@@H]3COc3ccccn3)c(F)cc2c1=O (stereo partly drawn) [Example 453, (R)-6-fluoro-1-(3-(hydroxymethyl)cyclobutyl)-4-oxo-7-(2-((pyridin-2-yloxy)methyl)pyrrolidin-1-yl)-1,4-dihydroquinoline-3-carboxylic acid] | 10000 to 50000 |  |  |
| O=C(O)c1cn(-c2cnc(O)cn2)c2cc(N3CCC[C@@H]3COc3ccccn3)c(F)cc2c1=O [Example 354, (R)-6-fluoro-1-(5-hydroxypyrazin-2-yl)-4-oxo-7-(2-((pyridin-2-yloxy)methyl)pyrrolidin-1-yl)-1,4-dihydroquinoline-3-carboxylic acid] | 1000 to 10000 |  |  |
| O=C(O)c1cn(-c2cnc3c(n2)COC3)c2cc(N3CCC[C@@H]3COc3ncccc3Cl)c(Cl)cc2c1=O (racemic) [Compound 182, rac-(R)-6-chloro-7-(2-(((3-chloropyridin-2-yl)oxy)methyl)pyrrolidin-1-yl)-1-(5,7-dihydrofuro [3,4-b]pyrazin-2-yl)-4-oxo-1,4-dihydro-quinoline-3-carboxylic acid] |  | ≤ 1000 |  |
| Cc1cccnc1OC[C@H]1CCCN1c1c(F)cc2c(=O)c(C(=O)O)cn(-c3ccc(O)cc3F)c2c1F [Example 20, (R)-6,8-difluoro-1-(2-fluoro-4-hydroxyphenyl)-7-(2-(((3-methylpyridin-2-yl)oxy)methyl)pyrrolidin-1-yl)-4-oxo-1,4-dihydroquinoline-3-carboxylic acid] |  |  | IC50 [2]: ≤ 1000 nM |

More lines, main results first:

| IC50 [1] [nM] | IC50 [3] [nM] | SMILES | other results |
| --- | --- | --- | --- |
| ≤ 1000 |  | CN(C)C1CN(c2ccc(-n3cc(C(=O)O)c(=O)c4cc(Cl)c(N5CC6(CC6)C[C@@H]5COc5nc(OC6CC6)ccc5Cl)cc43)cn2)C1 [Example 675, (R)-6-chloro-7-(6-(((3-chloro-6-cyclopropoxy-pyridin-2-yl)oxy)methyl)-5-azaspiro[2.4]heptan-5-yl)-1-(6-(3-(dimethylamino)azetidin-1-yl)pyridin-3-yl)-4-oxo-1,4-dihydroquinoline-3-carboxylic acid] |  |
|  | ≤ 1000 | COc1ccc(Cl)c(OC[C@H]2CC(C3CCC3)CN2c2cc3c(cc2Cl)c(=O)c(C(=O)O)cn3-c2ccc(N3CC(N(C)C)C3)nc2)n1 (mixture of isomers) [Compound 203, rac-6-chloro-7-((2R)-2-(((3-chloro-6-methoxy-pyridin-2-yl)oxy)methyl)-4-cyclobutyl-pyrrolidin-1-yl)-1-(6-(3-(dimethyl-amino)azetidin-1-yl)pyridin-3-yl)-4-oxo-1,4-dihydro-quinoline-3-carboxylic acid] |  |
| ≤ 1000 |  | CN(C)C1CN(c2ccc(-n3cc(C(=O)O)c(=O)c4cc(Cl)c(N5Cc6cccnc6[C@@H]5COc5ncccc5Cl)cc43)cn2)C1 [Example 597, (R)-6-chloro-7-(7-(((3-chloropyridin-2-yl)oxy)methyl)-5,7-dihydro-6H-pyrrolo[3,4-b]pyridin-6-yl)-1-(6-(3-(dimethylamino)azetidin-1-yl)pyridin-3-yl)-4-oxo-1,4-dihydroquinoline-3-carboxylic acid] |  |
| ≤ 1000 |  | CN(C)C1CN(c2ccc(-n3cc(C(=O)O)c(=O)c4cc(F)c(N5C[C@@H](F)C[C@@H]5COc5ncccc5F)cc43)cn2)C1 [Example 465, 1-(6-(3-(dimethylamino)azetidin-1-yl)pyridin-3-yl)-6-fluoro-7-((2R,4S)-4-fluoro-2-(((3-fluoropyridin-2-yl)oxy)methyl)pyrrolidin-1-yl)-4-oxo-1,4-dihydroquinoline-3-carboxylic acid] |  |
| ≤ 1000 |  | COc1ccc(Cl)c(OC[C@H]2CC(C)(O)CN2c2cc3c(cc2Cl)c(=O)c(C(=O)O)cn3-c2ccc(N3CC(N(C)C)C3)nc2)n1 (stereo partly drawn) [Example 643, 6-chloro-7-((2R)-2-(((3-chloro-6-methoxypyridin-2-yl)oxy)methyl)-4-hydroxy-4-methylpyrrolidin-1-yl)-1-(6-(3-(dimethylamino)azetidin-1-yl)pyridin-3-yl)-4-oxo-1,4-dihydroquinoline-3-carboxylic acid] |  |
|  | ≤ 1000 | COc1ccc(Cl)c(OC[C@H]2CCCN2c2cc3c(cc2C)c(=O)c(C(=O)O)cn3-c2ccc(N3CC(N(C)C)C3)nc2)n1 [Compound 206, (R)-7-(2-(((3-chloro-6-methoxy-pyridin-2-yl)oxy)methyl)pyrrolidin-1-yl)-1-(6-(3-(dimethyl-amino)azetidin-1-yl)pyridin-3-yl)-6-methyl-4-oxo-1,4-dihydro-quinoline-3-carboxylic acid] |  |
|  | ≤ 1000 | O=C(O)c1cn(-c2ccc(Cl)c(O)c2)c2cc(N3CCC[C@@H]3COc3ncccc3Cl)c(Cl)cc2c1=O [Compound 126, (R)-6-chloro-1-(4-chloro-3-hydroxy-phenyl)-7-(2-(((3-chloropyridin-2-yl)oxy)methyl)pyrrolidin-1-yl)-4-oxo-1,4-dihydro-quinoline-3-carboxylic acid] |  |

Reference: patent US12662491B2 (Redona Therapeutics, Inc., priority 2020, dated 2026)
